Experimental findings from ChEMBL document CHEMBL5584297, “Cytotoxic Peptaibols from Trichoderma strigosum” (J Nat Prod, 2024) are described below.

Calls of active or inactive are those of the source. No cut-off for these calls is given here. Square brackets hold non-standard residues; d marks the D form. Peptide text beside a SMILES is read from it. Leu(ol) = CC(C)C[C@H](N)CO; Aib = CC(C)(N)C(=O)O A value given as a limit tells only on which side of the number the result lay.

Assay [1] has as its system SNU-449. Kind of assay: Antiproliferative activity against human SNU-449 cells assessed as reduction in cell viability incubated for 24 hrs by MTT assay. The conditions noted are these: SNU-449, 24 h. Format: functional, cell-based. For orientation: Formazan colour is commonly taken as a measure of viable cells.
Assay [2] deals with Candida albicans. Kind of assay: Antifungal activity against Candida albicans. Format: functional, organism-based.
The subject of assay [3] is SK-OV-3. Kind of assay: Antiproliferative activity against human SK-OV-3 cells assessed as reduction in cell viability incubated for 24 hrs by MTT assay. In kind it is functional, cell-based. To be noted: SK-OV-3, 24 h.
For assay [4], the system named is Fusarium oxysporum. Kind of assay: Antifungal activity against Fusarium oxysporum KCTC 16654. Format: functional, organism-based.
Assay [5] deals with [Candida] auris. Kind of assay: Antifungal activity against Candida auris. In kind it is functional, organism-based. To be noted: Candidozyma auris.
For assay [6], the system named is DU-145. Kind of assay: Antiproliferative activity against human DU-145 cells assessed as reduction in cell viability incubated for 24 hrs by MTT assay. Format: functional, cell-based. To be noted: DU-145, 24 h.
Assay [7] has as its system MDA-MB-231. Kind of assay: Antiproliferative activity against human MDA-MB-231 cells assessed as reduction in cell viability incubated for 24 hrs by MTT assay. Format: functional, cell-based. To be noted: MDA-MB-231, 24 h.
Assay [8] has as its system HCT-116. Kind of assay: Antiproliferative activity against human HCT-116 cells assessed as reduction in cell viability incubated for 24 hrs by MTT assay. In kind it is functional, cell-based. To be noted: HCT-116, 24 h.

As a reminder, the IC50 is the concentration that inhibits the measured activity by half. In the case of `CCCCCCCC(=O)NCC(=O)N[C@@H](C)C(=O)N[C@H](C(=O)N[C@](C)(CC)C(=O)N[C@@H](C)C(=O)N[C@@H](CC(C)C)C(=O)N[C@H](CO)CC(C)C)C(C)C`, the IC50 in assay [1] stood at 39 µM; in assay [3], 47 µM; in assay [6], 15.1 µM; in assay [7] it was 11.5 µM; in assay [8] it was 8.9 µM. Also, the outcome in assay [2], in assay [4] and in assay [5] was inactive.
For the molecule `CCCCCCCC(=O)NCC(=O)N[C@@H](C)C(=O)N[C@@H](CC(C)C)C(=O)N[C@](C)(CC)C(=O)N[C@@H](C)C(=O)N[C@@H](CC(C)C)C(=O)N[C@H](CO)CC(C)C`, the IC50 in assay [1] was 222 µM; in assay [3] it was 50.3 µM; in assay [6], 18.2 µM; in assay [7], 18.5 µM; in assay [8] it was 37.9 µM. Also, the result in assay [2], in assay [4] and in assay [5] was inactive.
For `CC[C@H](C)[C@H](NC(=O)C(C)(C)NC(=O)C(C)(C)NC(=O)[C@H](C)NC(=O)C(C)(C)NC(C)=O)C(=O)N[C@@H](CCC(N)=O)C(=O)NC(C)(C)C(=O)NC(C)(C)C(=O)NC(C)(C)C(=O)N[C@@H](CO)C(=O)N[C@@H](CC(C)C)C(=O)NC(C)(C)C(=O)N1CCC[C@H]1C(=O)N[C@H](C(=O)NC(C)(C)C(=O)NC(C)(C)C(=O)N[C@@H](CCC(N)=O)C(=O)N[C@@H](CCC(N)=O)C(=O)N[C@H](CO)CC(C)C)C(C)C` (Ac-[Aib]A[Aib][Aib]IQ[Aib][Aib][Aib]SL[Aib]PV[Aib][Aib]QQ[Leu(ol)]), the 50% inhibitory concentration (IC50) turned out to be 5.7 µM in assay [1]; 3.8 µM in assay [3]; 2.1 µM in assay [6]; 2.3 µM in assay [7]; 3.2 µM in assay [8]. Besides, the result in assay [2], in assay [4] and in assay [5] was inactive.
For the molecule `CC[C@H](C)[C@H](NC(=O)C(C)(C)NC(=O)C(C)(C)NC(=O)[C@H](C)NC(=O)C(C)(C)NC(C)=O)C(=O)N[C@@H](CCC(N)=O)C(=O)NC(C)(C)C(=O)NC(C)(C)C(=O)NC(C)(C)C(=O)N[C@@H](CO)C(=O)N[C@H](C(=O)NC(C)(C)C(=O)N1CCC[C@H]1C(=O)N[C@H](C(=O)NC(C)(C)C(=O)NC(C)(C)C(=O)N[C@@H](CCC(N)=O)C(=O)N[C@@H](CCC(N)=O)C(=O)N[C@H](CO)CC(C)C)C(C)C)C(C)C` (Ac-[Aib]A[Aib][Aib]IQ[Aib][Aib][Aib]SV[Aib]PV[Aib][Aib]QQ[Leu(ol)]), the IC50 in assay [1] is over 150 µM; in assay [3] it was 26.7 µM; in assay [6], 12.2 µM; in assay [7] it was 8.7 µM; in assay [8], 9 µM. Moreover, the result in assay [2], in assay [4] and in assay [5] was inactive.
On to `CC(=O)NC(C)(C)C(=O)N[C@@H](C)C(=O)NC(C)(C)C(=O)NC(C)(C)C(=O)N[C@@H](CC(C)C)C(=O)N[C@@H](CCC(N)=O)C(=O)NC(C)(C)C(=O)NC(C)(C)C(=O)NC(C)(C)C(=O)N[C@@H](CO)C(=O)N[C@@H](CC(C)C)C(=O)NC(C)(C)C(=O)N1CCC[C@H]1C(=O)N[C@H](C(=O)NC(C)(C)C(=O)NC(C)(C)C(=O)N[C@@H](CCC(N)=O)C(=O)N[C@@H](CCC(N)=O)C(=O)N[C@H](CO)CC(C)C)C(C)C` (Ac-[Aib]A[Aib][Aib]LQ[Aib][Aib][Aib]SL[Aib]PV[Aib][Aib]QQ[Leu(ol)]), for which the IC50 in assay [1] stood at 10.4 µM; in assay [3], 4.1 µM; in assay [6], 4.4 µM; in assay [7] it was 2.3 µM; in assay [8], 3.7 µM. Also, the outcome in assay [2], in assay [4] and in assay [5] was inactive.
For the molecule `CC(=O)NC(C)(C)C(=O)N[C@@H](C)C(=O)NC(C)(C)C(=O)NC(C)(C)C(=O)N[C@@H](CC(C)C)C(=O)N[C@@H](CCC(N)=O)C(=O)NC(C)(C)C(=O)NC(C)(C)C(=O)NC(C)(C)C(=O)N[C@@H](CO)C(=O)N[C@H](C(=O)NC(C)(C)C(=O)N1CCC[C@H]1C(=O)N[C@H](C(=O)NC(C)(C)C(=O)NC(C)(C)C(=O)N[C@@H](CCC(N)=O)C(=O)N[C@@H](CCC(N)=O)C(=O)N[C@H](CO)CC(C)C)C(C)C)C(C)C` (Ac-[Aib]A[Aib][Aib]LQ[Aib][Aib][Aib]SV[Aib]PV[Aib][Aib]QQ[Leu(ol)]), the IC50 in assay [1] was determined as 30.8 µM; in assay [3], 11.9 µM; in assay [6], 12 µM; in assay [7], 7.2 µM; in assay [8], 8.7 µM. The result in assay [2], in assay [4] and in assay [5] was inactive.
As for `CC[C@H](C)[C@H](NC(=O)C(C)(C)NC(=O)C(C)(C)NC(=O)[C@H](CO)NC(=O)C(C)(C)NC(C)=O)C(=O)N[C@@H](CCC(N)=O)C(=O)NC(C)(C)C(=O)NC(C)(C)C(=O)NC(C)(C)C(=O)N[C@@H](CO)C(=O)N[C@@H](CC(C)C)C(=O)NC(C)(C)C(=O)N1CCC[C@H]1C(=O)N[C@H](C(=O)NC(C)(C)C(=O)NC(C)(C)C(=O)N[C@@H](CCC(N)=O)C(=O)N[C@@H](CCC(N)=O)C(=O)N[C@H](CO)CC(C)C)C(C)C` (Ac-[Aib]S[Aib][Aib]IQ[Aib][Aib][Aib]SL[Aib]PV[Aib][Aib]QQ[Leu(ol)]), the IC50 in assay [1] came out at 11.3 µM; in assay [3] it was 2.4 µM; in assay [6], 2 µM; in assay [7], 1 µM; in assay [8], 4.3 µM. The result in assay [2], in assay [4] and in assay [5] was inactive.
With `CC(=O)NC(C)(C)C(=O)N[C@@H](CO)C(=O)NC(C)(C)C(=O)NC(C)(C)C(=O)N[C@@H](CC(C)C)C(=O)N[C@@H](CCC(N)=O)C(=O)NC(C)(C)C(=O)NC(C)(C)C(=O)NC(C)(C)C(=O)N[C@@H](CO)C(=O)N[C@@H](CC(C)C)C(=O)NC(C)(C)C(=O)N1CCC[C@H]1C(=O)N[C@H](C(=O)NC(C)(C)C(=O)NC(C)(C)C(=O)N[C@@H](CCC(N)=O)C(=O)N[C@@H](CCC(N)=O)C(=O)N[C@H](CO)CC(C)C)C(C)C` (Ac-[Aib]S[Aib][Aib]LQ[Aib][Aib][Aib]SL[Aib]PV[Aib][Aib]QQ[Leu(ol)]), the IC50 in assay [1] was 13 µM; in assay [3], 12.4 µM; in assay [6], 3.3 µM; in assay [7], 2.5 µM; in assay [8] it was 4.4 µM. In addition, the outcome in assay [2], in assay [4] and in assay [5] was inactive.
With `COc1cccc2c1C(=O)c1c(O)c3c(c(O)c1C2=O)C[C@@](O)(C(=O)CO)C[C@@H]3O[C@H]1C[C@H](N)[C@H](O)[C@H](C)O1` [DOXORUBICIN], the IC50 was determined as 71.4 µM in assay [1], 88.4 µM in assay [3], 91.2 µM in assay [6] and 73.6 µM in assay [8]. In addition, the result in assay [2], in assay [4] and in assay [5] was inactive.
